The conditions of this series: DTA.

± gives the expanded uncertainty stated by the source.

As for `CC(C)C[P+](C)(CC(C)C)CC(C)C.Cc1ccc(S(=O)(=O)[O-])cc1` [triisobutylmethylphosphonium p-toluenesulfonate], the Glass transition temperature was -47.6 ± 5 °C.

For the origin of these results see the NIST ThermoML archive (doi:10.1016/j.fluid.2009.01.012).
